Laboratory results reported in the CheMixHub viscosity set.

Assay: xn = mol fraction of the nth substance listed

ClC(Cl)Cl + CCCCO
viscosity [mPa·s], 303.15 K
Settings	101 kPa	101.3 kPa
x2 = 0.0563	0.5315	0.5315
x2 = 0.0995	0.5491	0.5491
x2 = 0.1395	0.5709	0.5709
x2 = 0.1858	0.6001	0.6001
x2 = 0.2305	0.6329	0.6329
x2 = 0.2878	0.6839	0.6839
x2 = 0.301	0.6958	0.6958
x2 = 0.3666	0.7663	0.7663
x2 = 0.4891	0.9373	0.9373
x2 = 0.5662	1.076	1.076
x2 = 0.6718	1.314	1.314
x2 = 0.7659	1.574	1.574
x2 = 0.8333	1.78	1.78
x2 = 0.9386	2.107	2.107

ClC(Cl)Cl + CCCCn1cc[n+](C)c1.F[B-](F)(F)F
298.15 K, 101 kPa
Settings	viscosity [mPa·s]
x1 = 0.1079	92.5
x1 = 0.2033	73.3
x1 = 0.7028	9.24

CCCCCCCCCC(=O)OC + CCCO
viscosity [mPa·s], 100 kPa
Settings	x1 = 0.0999	x1 = 0.1999	x1 = 0.2999	x1 = 0.3995	x1 = 0.4995	x1 = 0.599	x1 = 0.6999	x1 = 0.8002	x1 = 0.8976
298.15 K	1.745	1.671	1.648	1.652	1.676	1.702	1.746	1.788	1.859
303.15 K	1.566	1.506	1.487	1.495	1.515	1.547	1.583	1.622	1.692
308.15 K	1.408	1.361	1.35	1.36	1.38	1.413	1.442	1.482	1.546
313.15 K	1.271	1.236	1.228	1.241	1.262	1.295	1.325	1.36	1.418
318.15 K	1.151	1.124	1.124	1.136	1.161	1.19	1.216	1.252	1.304
323.15 K	1.045	1.027	1.031	1.045	1.067	1.097	1.126	1.158	1.207

CCCCCCCCCCCCCCCC + CCCO
101 kPa
Settings	viscosity [mPa·s]
298.15 K, x2 = 0.3	2.665
308.15 K, x2 = 0.8	1.795

ClC(Cl)Cl + CCCO
viscosity [mPa·s]
Settings	101 kPa	101.3 kPa
293.15 K, x2 = 0.1045	0.7119	–
293.15 K, x2 = 0.2064	0.7711	–
293.15 K, x2 = 0.3054	0.8524	–
293.15 K, x2 = 0.4027	0.9582	–
293.15 K, x2 = 0.5075	1.105	–
293.15 K, x2 = 0.6005	1.255	–
293.15 K, x2 = 0.7045	1.507	–
293.15 K, x2 = 0.8005	1.746	–
293.15 K, x2 = 0.8967	1.998	–
303 K, x1 = 0.2987	–	1.065
303 K, x1 = 0.4992	–	0.8162
303 K, x1 = 0.699	–	0.6346
303 K, x1 = 0.9085	–	0.5383
303.15 K, x2 = 0.059	0.5225	0.5225
303.15 K, x2 = 0.1045	0.6482	–
303.15 K, x2 = 0.1099	0.5365	0.5365
303.15 K, x2 = 0.1428	0.5488	0.5488
303.15 K, x2 = 0.1958	0.5706	0.5706
303.15 K, x2 = 0.2064	0.6878	–
303.15 K, x2 = 0.2432	0.5949	0.5949
303.15 K, x2 = 0.3054	0.7556	–
303.15 K, x2 = 0.3447	0.6588	0.6588
303.15 K, x2 = 0.4027	0.8383	–
303.15 K, x2 = 0.4974	0.8026	0.8026
303.15 K, x2 = 0.5075	0.9487	–
303.15 K, x2 = 0.6005	1.073	–
303.15 K, x2 = 0.6171	0.9716	0.9716
303.15 K, x2 = 0.7045	1.242	–
303.15 K, x2 = 0.7318	1.185	1.185
303.15 K, x2 = 0.8005	1.408	–
303.15 K, x2 = 0.8606	1.46	1.46
303.15 K, x2 = 0.8967	1.584	–
303.15 K, x2 = 0.9106	1.565	1.565
303.15 K, x2 = 0.9251	1.595	1.595
303.15 K, x2 = 0.9307	1.606	–
303.15 K, x2 = 0.95	1.643	–
311 K, x1 = 0.0987	–	1.283
311 K, x1 = 0.2987	–	0.9064
311 K, x1 = 0.4992	–	0.7227
311 K, x1 = 0.699	–	0.5734
311 K, x1 = 0.9085	–	0.4977
313.15 K, x2 = 0.1045	0.5901	–
313.15 K, x2 = 0.2064	0.6192	–
313.15 K, x2 = 0.3054	0.6675	–
313.15 K, x2 = 0.4027	0.7329	–
313.15 K, x2 = 0.5075	0.8143	–
313.15 K, x2 = 0.6005	0.9163	–
313.15 K, x2 = 0.7045	1.043	–
313.15 K, x2 = 0.8967	1.278	–
319 K, x1 = 0.0987	–	1.08
319 K, x1 = 0.2941	–	0.8178
319 K, x1 = 0.497	–	0.6404
319 K, x1 = 0.699	–	0.5202
319 K, x1 = 0.9085	–	0.4655
323.15 K, x2 = 0.1045	0.4791	–
323.15 K, x2 = 0.2064	0.535	–
323.15 K, x2 = 0.3054	0.5965	–
323.15 K, x2 = 0.4027	0.6495	–
323.15 K, x2 = 0.5075	0.7165	–
323.15 K, x2 = 0.6005	0.7941	–
323.15 K, x2 = 0.7045	0.8805	–
323.15 K, x2 = 0.8005	0.965	–
323.15 K, x2 = 0.8967	1.047	–

ClC(Cl)Cl + CCO
Settings	viscosity [mPa·s]
303 K, 101.3 kPa, x1 = 0.1074	0.9539
303 K, 101.3 kPa, x1 = 0.2992	0.8095
303 K, 101.3 kPa, x1 = 0.5029	0.6591
303 K, 101.3 kPa, x1 = 0.6978	0.5679
303 K, 101.3 kPa, x1 = 0.9003	0.5256
303.15 K, 101 kPa, x2 = 0.0811	0.514
303.15 K, 101 kPa, x2 = 0.1571	0.5247
303.15 K, 101 kPa, x2 = 0.2368	0.544
303.15 K, 101 kPa, x2 = 0.3342	0.5774
303.15 K, 101 kPa, x2 = 0.4545	0.6351
303.15 K, 101 kPa, x2 = 0.5514	0.697
303.15 K, 101 kPa, x2 = 0.6372	0.7617
303.15 K, 101 kPa, x2 = 0.7644	0.8683
303.15 K, 101 kPa, x2 = 0.7943	0.8927
303.15 K, 101 kPa, x2 = 0.8607	0.9412
303.15 K, 101 kPa, x2 = 0.9211	0.9752
303.15 K, 101.3 kPa, x2 = 0.186	0.514
303.15 K, 101.3 kPa, x2 = 0.3257	0.5247
303.15 K, 101.3 kPa, x2 = 0.4457	0.544
303.15 K, 101.3 kPa, x2 = 0.5653	0.5774
303.15 K, 101.3 kPa, x2 = 0.6834	0.6351
303.15 K, 101.3 kPa, x2 = 0.761	0.697
303.15 K, 101.3 kPa, x2 = 0.8198	0.7617
303.15 K, 101.3 kPa, x2 = 0.8937	0.8683
303.15 K, 101.3 kPa, x2 = 0.9091	0.8927
303.15 K, 101.3 kPa, x2 = 0.9412	0.9412
303.15 K, 101.3 kPa, x2 = 0.968	0.9752
311 K, 101.3 kPa, x1 = 0.1074	0.8217
311 K, 101.3 kPa, x1 = 0.2992	0.7021
311 K, 101.3 kPa, x1 = 0.5029	0.5849
311 K, 101.3 kPa, x1 = 0.6978	0.5169
311 K, 101.3 kPa, x1 = 0.9003	0.4864
319 K, 101.3 kPa, x1 = 0.1074	0.7107
319 K, 101.3 kPa, x1 = 0.2892	0.6097
319 K, 101.3 kPa, x1 = 0.5029	0.5234
319 K, 101.3 kPa, x1 = 0.6978	0.4922
319 K, 101.3 kPa, x1 = 0.9003	0.4517

O=CC(Cl)(Cl)Cl + CCO
viscosity [mPa·s], 101 kPa
Settings	313.15 K	318.15 K	323.15 K
x1 = 0.1	1.126	1.031	0.939
x1 = 0.15	1.406	1.271	1.141
x1 = 0.2	1.753	1.569	1.397
x1 = 0.25	2.2	1.951	1.702
x1 = 0.3	2.783	2.383	2.074
x1 = 0.4	4.053	3.366	2.848
x1 = 0.425	4.352	3.58	3
x1 = 0.45	4.632	3.769	3.141
x1 = 0.475	4.757	3.854	3.201
x1 = 0.49	4.703	3.788	3.143
x1 = 0.5	4.565	3.673	3.064
x1 = 0.55	3.937	3.201	2.706
x1 = 0.6	3.311	2.737	2.392
x1 = 0.7	2.258	1.989	1.757
x1 = 0.75	1.976	1.724	1.53
x1 = 0.8	1.755	1.542	1.38
x1 = 0.9	1.351	1.219	1.12

ClC(Cl)Cl + CCOC(C)=O
303.15 K, 101.3 kPa
Settings	viscosity [mPa·s]
x2 = 0.1062	0.5361
x2 = 0.2031	0.5455
x2 = 0.305	0.5471
x2 = 0.4094	0.5381
x2 = 0.5069	0.5255
x2 = 0.6112	0.5028
x2 = 0.808	0.4504
x2 = 0.9027	0.4254

CC(=O)OCc1ccccc1 + CCc1ccccc1
viscosity [mPa·s], 101 kPa
Settings	x1 = 0.0913	x1 = 0.176	x1 = 0.2732	x1 = 0.3687	x1 = 0.467	x1 = 0.5592	x1 = 0.6706	x1 = 0.7597	x1 = 0.8652	x1 = 0.9304
303.15 K	0.643	0.692	0.755	0.825	0.912	1.006	1.133	1.265	1.428	1.526
313.15 K	0.577	0.616	0.663	0.717	0.784	0.845	0.943	1.033	1.156	1.233

CC[n+]1ccn(C)c1.COS(=O)(=O)[O-] + CN1CCCC1=O
101 kPa
Settings	viscosity [mPa·s]
298.15 K, x1 = 0.243	9.19
298.15 K, x1 = 0.9139	68.9
298.15 K, x1 = 0.9581	76.81
303.15 K, x1 = 0.243	7.33
303.15 K, x1 = 0.282	8.88
308.15 K, x1 = 0.282	6.76
308.15 K, x1 = 0.3482	9.45
313.15 K, x1 = 0.3482	8.19

ClC(Cl)Cl + CN(C)C=O
viscosity [mPa·s], 101 kPa
Settings	293.15 K	303.15 K	313.15 K	323.15 K
x2 = 0.0512	0.7325	0.6616	0.6031	–
x2 = 0.1011	0.7913	0.7089	0.636	0.5823
x2 = 0.1954	0.9132	0.8102	–	0.6447
x2 = 0.1955	–	–	0.7206	–
x2 = 0.2975	1.025	0.901	0.7977	0.7077
x2 = 0.392	1.095	0.9598	0.8479	0.7408
x2 = 0.5008	1.128	0.9894	0.8735	0.7803
x2 = 0.5983	1.123	0.9851	0.8753	0.7856
x2 = 0.6918	1.091	0.9617	0.8556	0.7692
x2 = 0.7851	1.051	0.9294	0.8306	0.7493
x2 = 0.8951	0.9944	–	0.7921	0.7179
x2 = 0.8952	–	0.8835	–	–
